Read-outs that look alike come from different tables or passages of the source.
How the values were obtained:
[1] = Luminescence lifetime measurements; format: physicochemical; conditions: excitation at 355 nm; for τ/ns air (Lifetime): air saturated CH3CN; for τ/ns degassed (Lifetime): degassed CH3CN
Method: (§1) For the determination of the lifetimes, the samples were prepared in an air saturated and in a degassed CH3CN solution with an absorbance of 0.2 at 355 nm. This solution was irradiated in fluorescence quartz cuvettes (width 1 cm) using a NT342B Nd-YAG pumped optical parametric oscillator (Ekspla) at 355 nm. The emission signal was focused and collected at right angle to the excitation pathway and directed to a Princeton Instruments Acton SP-2300i monochromator. As a detector a R928 photomultiplier tube (Hamamatsu) has been used.

[2] = Luminescence quantum yield measurements; format: physicochemical; design: key: fraction, relative to [Ru(bipy)3]Cl2 reference in CH3CN (Φem=5.9%); conditions: CH3CN, room temperature, excitation at 355 nm
Method: as §1, with “luminescence quantum yield,” for “lifetimes,”, “an” for “an air saturated and in a degassed”, “0.1” for “0.2”, “XPI-Max 4 CCD camera (Princeton Instruments)” for “R928 photomultiplier tube (Hamamatsu)”, “used. The luminescence quantum yields were determined by comparison with the reference [Ru(bipy)3]Cl2 in CH3CN (Φem=5.9%) (Nakamaru, K., 1982) applying the following formula:” for “used.”
Φem, sample=Φem, reference*(Freference/Fsample)*(Isample/Ireference)*(nsample/nreference)^2
Φem=luminescence quantum yield, F=fraction of light absorbed, I=integrated emission intensities, n=refractive index, A=absorbance of the sample at irradiation wavelength.

[3] = system: mouse colon carcinoma (CT-26) cells; test: (Photo-)cytotoxicity on 2D cell monolayers, resazurin assay, CT-26; conditions: for PI (480 nm): CT-26, dark vs 480 nm (10 min, 3.1 J/cm^2); for PI (540 nm): CT-26, dark vs 540 nm (40 min, 9.5 J/cm^2); for IC50: compounds 1-3 as chloride salts
Method: (§2) The human glioblastoma astrocytoma (U373) cell line was cultured in MEM medium supplemented with 10% FBS, 1% NEAA (non-essential amino-acids) and 1% penicillin/streptomycin. […] The human retinal epithelial cells (RPE-1, non-cancerous cells immortalized with hTERT) were cultured in DMEM-F12 medium supplemented with 10% FBS and 1% penicillin/streptomycin. All cell lines were obtained from the American Type Culture Collection (ATCC) and cultured at 37° C. and 5% CO2. Before an experiment, the cells were passaged three times.
(§3) The cytotoxicity of the compounds was assessed by measuring cell viability using a fluorometric resazurin assay. The cultivated cells were seeded in triplicates in 96 well plates with a density of 4000 cells per well in 100 μL of media. After 24 h, the medium was removed and the cells were treated with increasing concentrations of the compound diluted in cell media achieving a total volume of 200 μL. The cells were incubated with the compound for 4 h. After this time, the media was removed and replaced with 200 μL of fresh medium. For the phototoxicity studies, the cells were exposed to light with an Atlas Photonics LUMOS BIO irradiator. Each well was constantly illuminated with either a 480 nm or 540 nm irradiation. During this time, the temperature was maintained constantly at 37° C. The cells were grown in the incubator for additional 44 h. For the determination of the dark cytotoxicity, the cells were not irradiated and after the medium exchange directly incubated for 44 h. After this time, the medium was replaced with fresh medium containing resazurin with a final concentration of 0.2 mg/mL. After 4 h incubation, the amount of the fluorescent product resorufin was determined upon excitation at 540 nm and measurement its emission at 590 nm using a SpectraMax M2 Microplate Reader (Molecular Devices).
(§4) The obtained data was analyzed with the GraphPad Prism software.

[4] = Singlet oxygen measurement, direct evaluation (1O2 luminescence at 1270 nm); format: physicochemical
Method: The samples were prepared in an air saturated CH3CN or D2O solution with an absorbance of 0.2 at 450 nm. This solution was irradiated in fluorescence quartz cuvettes (width 1 cm) using a mounted M450LP1 LED (Thorlabs) whose irradiation, centered at 450 nm, has been focused with aspheric condenser lenses. The intensity of the irradiation has been varied using a T-Cube LED Driver (Thorlabs) and measured with an optical power and energy meter. The emission signal was focused and collected at right angle to the excitation pathway and directed to a Princeton Instruments Acton SP-2300i monochromator. A longpass glass filter was placed in front of the monochromator entrance slit to cut off light at wavelengths shorter than 850 nm. As a detector an EO-817L IR-sensitive liquid nitrogen cooled germanium diode detector (North Coast Scientific Corp.) has been used. The singlet oxygen luminesce at 1270 nm was measured by recording spectra from 1100 to 1400 nm. For the data analysis, the singlet oxygen luminescence peaks at different irradiation intensities were integrated. The resulting areas were plotted against the percentage of the irradiation intensity and the slope of the linear regression calculated. The absorbance of the sample was corrected with an absorbance correction factor. As reference for the measurement Rose Bengal (Φ=76%) (Kochevar, I. E. and Redmond, R. W., 2000) was used and the singlet oxygen quantum yields were calculated using the following formula:
Φsample=Φreference*(Ssample/Sreference)*(Ireference/Isample)
Φ=singlet oxygen quantum yield, S=slope of the linear regression of the plot of the areas of the singlet oxygen luminescence peaks against the irradiation intensity, I=absorbance correction factor, […] of the irradiation source, A=absorbance of the sample at irradiation wavelength.

[5] = system: human cervical carcinoma (HeLa) cells; test: (Photo-)cytotoxicity on 2D cell monolayers, resazurin assay, HeLa; format: cell-based; conditions: for PI (480 nm): dark vs 480 nm (10 min, 3.1 J/cm^2); for PI (540 nm): dark vs 540 nm (40 min, 9.5 J/cm^2)
Text: Before an experiment, the cells were passaged three times.

[6] = Singlet oxygen measurement, indirect evaluation (RNO absorbance); format: physicochemical; conditions: indirect
Method: For the measurement in CH3CN: The samples were prepared in an air-saturated CH3CN solution containing the complex with an absorbance of 0.2 at the irradiation wavelength, N,N-dimethyl-4-nitrosoaniline aniline (RNO, 24 μM) and imidazole (12 mM). For the measurement in PBS buffer: The samples were prepared in an air-saturated PBS solution containing the complex with an absorbance of 0.1 at the irradiation wavelength, N,N-dimethyl-4-nitrosoaniline aniline (RNO, 20 μM) and histidine (10 mM). The samples were irradiated on 96 well plates with an Atlas Photonics LUMOS BIO irradiator for different times. The absorbance of the samples was measured during these time intervals with a SpectraMax M2 Microplate Reader (Molecular Devices). The difference in absorbance (A0−A) at 420 nm for the CH3CN solution or at 440 nm a PBS buffer solution was calculated and plotted against the irradiation times. From the plot the slope of the linear regression was calculated as well as the absorbance correction factor determined. The singlet oxygen quantum yields were calculated using the same formulas as used for the direct evaluation.

[7] = system: mouse colon carcinoma (CT-26) cells
Method: as §2, §3, §4

[8] = system: human glioblastoma astrocytoma (U373) cells
Method: as §2, §3, §4

[9] = system: non-cancerous retinal pigment epithelium (RPE-1) cells; test: (Photo-)cytotoxicity on 2D cell monolayers, resazurin assay, RPE-1; conditions: for PI (480 nm): RPE-1, dark vs 480 nm (10 min, 3.1 J/cm^2); for PI (540 nm): RPE-1, dark vs 540 nm (40 min, 9.5 J/cm^2);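 for all read-outs here: cells exposed to compound 4 h, medium exchanged, then irradiated or kept dark, 44 h further growth, viability by resorufin fluorescence (ex 540 nm, em 590 nm)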
[10] = Emission measurement in CH3CN; format: physicochemical; conditions: room temperature, excitation at 355 nm
Method: The absorption of the samples was measured with a SpectraMax M2 Spectrometer (Molecular Devices). The emission was measured by irradiation of the sample in fluorescence quartz cuvettes (width 1 cm) using a NT342B Nd-YAG pumped optical parametric oscillator (Ekspla) at 355 nm. Luminescence was focused and collected at right angle to the excitation pathway and directed to a Princeton Instruments Acton SP-2300i monochromator. As a detector, a XPI-Max 4 CCD camera (Princeton Instruments) has been used.

[11] = system: human glioblastoma astrocytoma (U373) cells; test: (Photo-)cytotoxicity on 2D cell monolayers, resazurin assay, U373; conditions: for PI (480 nm): U373, dark vs 480 nm (10 min, 3.1 J/cm^2); for PI (540 nm): U373, dark vs 540 nm (40 min, 9.5 J/cm^2); for IC50: compounds 1-3 as chloride salts
Method: as §2, §3, §4

[12] = read-out: IC50 540 nm (40 min, 9.5 J/cm^2), CT-26, irradiation 540 nm (40 min, 9.5 J/cm^2)
[13] = read-out: IC50 dark, CT-26, dark, 4 h incubation
[14] = dark, 4 h incubation, compounds 1-3 as chloride salts, read-out: IC50 dark
[15] = read-out: IC50 480 nm (10 min, 3.1 J/cm^2), irradiation 480 nm (10 min, 3.1 J/cm^2), compounds 1-3 as chloride salts
[16] = read-out: IC50 540 nm (40 min, 9.5 J/cm^2), irradiation 540 nm (40 min, 9.5 J/cm^2), compounds 1-3 as chloride salts
[17] = read-out: IC50 480 nm (10 min, 3.1 J/cm^2), U373, irradiation 480 nm (10 min, 3.1 J/cm^2)
[18] = read-out: IC50 dark, U373, dark, 4 h incubation

Molecule | PI (480 nm) [3] | PI (540 nm) [3] | IC50 [3, 12] | IC50 [3, 13] | Singlet oxygen quantum yield, direct 450 nm CH3CN [4] | PI (480 nm) [5] | PI (540 nm) [5] | IC50 [5, 14] | IC50 [5, 15] | IC50 [5, 16] | Singlet oxygen quantum yield, indirect 450 nm CH3CN [6] | Singlet oxygen quantum yield, indirect 450 nm PBS [6] | Singlet oxygen quantum yield, indirect 540 nm CH3CN [6] | Singlet oxygen quantum yield, indirect 540 nm PBS [6] | IC50 [7] | IC50 [8] | PI (480 nm) [9] | PI (540 nm) [9] | IC50 [11, 17] | IC50 [11, 18] | also measured
C(=C\c1ccnc(-c2cc(/C=C/c3ccccc3)ccn2)c1)/c1ccccc1.C(=C\c1ccnc(-c2cc(/C=C/c3ccccc3)ccn2)c1)/c1ccccc1.C(=C\c1ccnc(-c2cc(/C=C/c3ccccc3)ccn2)c1)/c1ccccc1.F[P-](F)(F)(F)(F)F.F[P-](F)(F)(F)(F)F.[Ru+2] [Compound 1] | >4.9 | >3.0 | 33.4 ± 3.5 µM | > 100 µM | 65% | >3.4 | >2.1 | > 100 µM | 29.5 ± 1.2 µM | 48.7 ± 4.5 µM | 66% | 5% | 61% | 3% | 20.3 ± 1.8 µM | 83.1 ± 6.7 µM | >3.2 | >3.2 | 51.7 ± 3.2 µM | > 100 µM | τ/ns air (Lifetime) [1]: 86 ns; τ/ns degassed (Lifetime) [1]: 385 ns; ϕem (Luminescence Quantum Yield) [2]: 0.019; λem/nm (Emission maximum) [10]: 677 nm; PI (480 nm) [11]: >1.9; PI (540 nm) [11]: >1.2
CN(C)c1ccc(/C=C/c2ccnc(-c3cc(/C=C/c4ccc(N(C)C)cc4)ccn3)c2)cc1.CN(C)c1ccc(/C=C/c2ccnc(-c3cc(/C=C/c4ccc(N(C)C)cc4)ccn3)c2)cc1.CN(C)c1ccc(/C=C/c2ccnc(-c3cc(/C=C/c4ccc(N(C)C)cc4)ccn3)c2)cc1.F[P-](F)(F)(F)(F)F.F[P-](F)(F)(F)(F)F.[Ru+2] [Compound 2, [Ru((E,E′)-4,4′-Bis[p-(N,N-dimethylamino)styryl]-2,2′-bipyridine)3][PF6]2] | >2.3 | >1.6 | 62.5 ± 8.2 µM | > 100 µM | 18% | >3.4 | >1.9 | > 100 µM | 29.4 ± 8.3 µM | 52.3 ± 6.1 µM | 25% | 3% | 16% | 1% | 42.6 ± 3.8 µM | 61.4 ± 5.6 µM | >2.6 | >2.0 | 49.1 ± 6 µM | > 100 µM | τ/ns air (Lifetime) [1]: 48 ns; τ/ns degassed (Lifetime) [1]: 222 ns; ϕem (Luminescence Quantum Yield) [2]: <0.001; λem/nm (Emission maximum) [10]: 709 nm; PI (480 nm) [11]: >2.0; PI (540 nm) [11]: >1.6
F[P-](F)(F)(F)(F)F.F[P-](F)(F)(F)(F)F.[Ru+2].c1cnc2c(c1)ccc1cccnc12.c1cnc2c(c1)ccc1cccnc12.c1cnc2c(c1)ccc1cccnc12 [[Ru(1,10-phenanthroline)3][PF6]2, reference compound] |  |  | > 100 µM | > 100 µM | 25% |  |  | > 100 µM | > 100 µM | > 100 µM | 23% | 2% | 22% | 2% | > 100 µM | > 100 µM |  |  | > 100 µM | > 100 µM | 
[Ru(4,7-Diphenyl-1,10-phenanthroline)3][PF6]2 [reference compound] | 7.0 | 5.6 | 0.5 ± 0.2 µM | 2.8 ± 0.5 µM | 44% | 12.1 | 7.7 | 8.5 ± 0.4 µM | 0.7 ± 0.2 µM | 1.1 ± 0.2 µM | 47% | 4% | 45% | 3% | 0.4 ± 0.2 µM | 1.2 ± 0.3 µM | 13.4 | 10.1 | 1.3 ± 0.2 µM | 10.1 ± 0.7 µM | PI (480 nm) [11]: 7.8; PI (540 nm) [11]: 8.4

Reference: patent publication US20220409727A1, “Metal Complexes Bearing Bisstyryl-Bipyridine Ligand and Their Use as Photosensitizer Agent in One and Two-Photon Photodynamic Therapy” (Paris Sciences et Lettres, priority 2019, published 2022)
